Reference: PubChem BioAssay (NCI)
Several values for one entry are separate records, joined by “and”; a condition that tells them apart may be missing. Identical values can stand only once.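 Briefly, cells in 96-well plates were exposed to five compound concentrations for 48 h, and endpoints were estimated by linear interpolation. GI50 = concentration required for 50% inhibition of growth. At the TGI there is no net growth.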

Each compound was assayed on A498 renal (assay: NCI tumour cell line growth inhibition, 48 h).

Compound	GI50	TGI
C#CCOc1cccc(Nc2ncnc3c(NC(=O)C=C)cccc23)c1	24.4 µM	64.4 µM
CO[C@H]1Nc2c(ccc(C)c2O)C(=O)N2C=C(/C=C/C(N)=O)C[C@@H]12		0.495 µM
CCNC(=O)/C(=C/c1ccc(OC)cc1)c1cc(OC)c(OC)c(OC)c1		> 63.8 µM
CCCc1cc(=O)n2c(C(=O)Nc3ccc(Cl)cc3C)c(C(=O)Nc3ccc(F)cc3)sc2n1	29.2 µM	99.8 µM
Cc1ccc(OCCOCCOCCOCCOc2ccc(C)n(O)c2=S)c(=S)n1O	0.323 µM	10.9 µM
N#CC(=Nc1ccccc1N(C(=O)c1ccccc1)C(=O)c1ccccc1)c1ccccc1		> 100 µM
COC(=O)C(=O)C(C(C)=O)C(=O)NCc1ccc(OC)c(OC)c1 (configuration not stated)		> 100 µM
COc1ccc(-c2ccc3c(N4CCOC[C@@H]4C)nc(N4CCOC[C@@H]4C)nc3n2)cc1CO	0.00121 µM and < 0.01 µM	0.00302 µM and < 0.0234 µM
CCOC(=O)NC(=O)c1cn(C(CC)COC(=O)NCCCCCCNC(=O)OCC(CC)n2cc(C(=O)NC(=O)OCC)c(=O)[nH]c2=O)c(=O)[nH]c1=O (configuration not stated)		> 100 µM
N[C@H](CCC(=O)N[C@@H](Cc1c[nH]c2ccccc12)C(=O)O)C(=O)O	> 100 µM	> 100 µM
COc1ccc(-c2nc(-c3cc(OC)cc(OC)c3)[nH]c2-c2ccc(OC)cc2)cc1	> 100 µM	> 100 µM
Nc1ccccc1O.O.O=C(O)C1[O][Sb][O]C1C(=O)O (configuration not stated)	> 90.3 µM	> 100 µM
O=C(CC(=O)C1CCOC1=O)C(=O)Nc1cccc(Cl)c1 (configuration not stated)		> 100 µM
OC(c1cc(-c2ccc(C(F)(F)F)cc2)nc(C(F)(F)F)c1)C1CCCCN1 (configuration not stated)	1.47 µM	2.82 µM and 6.07 µM
CC(C)CC(C/C=C1/CC(CO)(COC(=O)C(C)(C)C)OC1=O)CC(C)C (configuration not stated)		21.7 µM and 22.2 µM
Cc1cccc(C2=C/C(=C(\SS/C(C(=O)c3ccc(OCC(=O)O)c(Cl)c3Cl)=C3\C=C(c4cccc(C)c4)SS3)C(=O)c3ccc(OCC(=O)O)c(Cl)c3Cl)SS2)c1		49.4 µM

The compounds below were run on NCI-H522 lung (assay: NCI tumour cell line growth inhibition, 48 h).

Compound	GI50	TGI
O=C1CCCN1c1ccccc1I(=O)=O	> 100000 nM	> 100 µM
O=C(NCc1ccc(Cn2c(=O)sn(-c3ccccc3)c2=O)cc1)OCc1ccc2cccc(O)c2n1	407 nM	1.69 µM
COC(c1ccc(C(C)(C)C)cc1)(c1ccc(C(C)(C)C)cc1)c1ccc(C(C)(C)C)cc1		> 100 µM
Nc1ccccc1C(=O)/C=C/c1c(O)ccc2ccccc12		> 100 µM
CC(C)c1[nH]nc2c1N=C(c1ccccc1Cl)c1cc([N+](=O)[O-])ccc1N2	2290 nM	> 18.3 µM
Nc1cc2c(cc1Br)[nH]c(=O)c1ccccc12	5470 nM	19.8 µM
COc1ccc(-c2nccn2-c2ccc(OC)cc2)cc1	17000 nM	42.9 µM
O=C(/C=C/c1ccccc1)c1ccccc1		> 10 µM
CC(C)[C@H](O)C(=O)N[C@@H](C)C(=O)N[C@@H]1C(=O)N(C)CCc2ccccc21	> 100000 nM	> 100 µM
CC(C)=C1CCC(CN(C)C)C1=O (configuration not stated)		0.4 µM
COc1ccc(-c2cnnn2-c2nonc2-n2cccc2)cc1	136 nM	0.487 µM
COc1cccc(/C=N/[N-]C(=O)c2ccncc2)c1[O-].COc1cccc(/C=N/[N-]C(=O)c2ccncc2)c1[O-].[O]=[U](=[O])([OH2+])[OH2+]	2050 nM	11 µM
ClC(Cl)=C1C(=C(Cl)Cl)C(Cl)(Cl)C1(Cl)Cl	287 nM	0.304 µM
C#CCOc1cccc(Nc2ncnc3c(NC(=O)C=C)cccc23)c1	14100 nM	32.6 µM
CO[C@H]1Nc2c(ccc(C)c2O)C(=O)N2C=C(/C=C/C(N)=O)C[C@@H]12		0.182 µM
CCNC(=O)/C(=C/c1ccc(OC)cc1)c1cc(OC)c(OC)c(OC)c1		20.8 µM
CCCc1cc(=O)n2c(C(=O)Nc3ccc(Cl)cc3C)c(C(=O)Nc3ccc(F)cc3)sc2n1	9180 nM	67.5 µM
Cc1ccc(OCCOCCOCCOCCOc2ccc(C)n(O)c2=S)c(=S)n1O	29.4 nM	> 79.7 µM
N#CC(=Nc1ccccc1N(C(=O)c1ccccc1)C(=O)c1ccccc1)c1ccccc1		> 100 µM
COC(=O)C(=O)C(C(C)=O)C(=O)NCc1ccc(OC)c(OC)c1 (configuration not stated)		> 100 µM
COc1ccc(-c2ccc3c(N4CCOC[C@@H]4C)nc(N4CCOC[C@@H]4C)nc3n2)cc1CO	4.84 nM	
CCOC(=O)NC(=O)c1cn(C(CC)COC(=O)NCCCCCCNC(=O)OCC(CC)n2cc(C(=O)NC(=O)OCC)c(=O)[nH]c2=O)c(=O)[nH]c1=O (configuration not stated)		> 100 µM
N[C@H](CCC(=O)N[C@@H](Cc1c[nH]c2ccccc12)C(=O)O)C(=O)O	> 100000 nM	> 100 µM
COc1ccc(-c2nc(-c3cc(OC)cc(OC)c3)[nH]c2-c2ccc(OC)cc2)cc1	3420 nM	59.3 µM
Nc1ccccc1O.O.O=C(O)C1[O][Sb][O]C1C(=O)O (configuration not stated)	2170 nM	6.24 µM
O=C(CC(=O)C1CCOC1=O)C(=O)Nc1cccc(Cl)c1 (configuration not stated)		> 100 µM
OC(c1cc(-c2ccc(C(F)(F)F)cc2)nc(C(F)(F)F)c1)C1CCCCN1 (configuration not stated)		3.19 µM and 3.27 µM
CC(C)CC(C/C=C1/CC(CO)(COC(=O)C(C)(C)C)OC1=O)CC(C)C (configuration not stated)		30 µM and 27 µM
Cc1cccc(C2=C/C(=C(\SS/C(C(=O)c3ccc(OCC(=O)O)c(Cl)c3Cl)=C3\C=C(c4cccc(C)c4)SS3)C(=O)c3ccc(OCC(=O)O)c(Cl)c3Cl)SS2)c1		8.14 µM

Each compound was assayed on NCI-H23 lung (assay: NCI tumour cell line growth inhibition, 48 h).

Compound	GI50	TGI
O=C1CCCN1c1ccccc1I(=O)=O	> 100 µM	> 100 µM
O=C(NCc1ccc(Cn2c(=O)sn(-c3ccccc3)c2=O)cc1)OCc1ccc2cccc(O)c2n1	1.46 µM	3.06 µM
COC(c1ccc(C(C)(C)C)cc1)(c1ccc(C(C)(C)C)cc1)c1ccc(C(C)(C)C)cc1		> 100 µM
Nc1ccccc1C(=O)/C=C/c1c(O)ccc2ccccc12		> 100 µM
CC(C)c1[nH]nc2c1N=C(c1ccccc1Cl)c1cc([N+](=O)[O-])ccc1N2	7.24 µM	> 25 µM
Nc1cc2c(cc1Br)[nH]c(=O)c1ccccc12	1.8 µM	5.29 µM
COc1ccc(-c2nccn2-c2ccc(OC)cc2)cc1	22.2 µM	58.9 µM
O=C(/C=C/c1ccccc1)c1ccccc1		> 10 µM
CC(C)[C@H](O)C(=O)N[C@@H](C)C(=O)N[C@@H]1C(=O)N(C)CCc2ccccc21	> 100 µM	> 100 µM
CC(C)=C1CCC(CN(C)C)C1=O (configuration not stated)		> 100 µM
COc1ccc(-c2cnnn2-c2nonc2-n2cccc2)cc1	0.246 µM	5.82 µM
COc1cccc(/C=N/[N-]C(=O)c2ccncc2)c1[O-].COc1cccc(/C=N/[N-]C(=O)c2ccncc2)c1[O-].[O]=[U](=[O])([OH2+])[OH2+]	3.93 µM	> 70 µM
ClC(Cl)=C1C(=C(Cl)Cl)C(Cl)(Cl)C1(Cl)Cl		3.57 µM
C#CCOc1cccc(Nc2ncnc3c(NC(=O)C=C)cccc23)c1	24.8 µM	> 100 µM
CO[C@H]1Nc2c(ccc(C)c2O)C(=O)N2C=C(/C=C/C(N)=O)C[C@@H]12		0.354 µM
CCNC(=O)/C(=C/c1ccc(OC)cc1)c1cc(OC)c(OC)c(OC)c1		> 85.3 µM
CCCc1cc(=O)n2c(C(=O)Nc3ccc(Cl)cc3C)c(C(=O)Nc3ccc(F)cc3)sc2n1	26.4 µM	> 150 µM
Cc1ccc(OCCOCCOCCOCCOc2ccc(C)n(O)c2=S)c(=S)n1O	0.0166 µM	> 100 µM
N#CC(=Nc1ccccc1N(C(=O)c1ccccc1)C(=O)c1ccccc1)c1ccccc1		> 100 µM
COC(=O)C(=O)C(C(C)=O)C(=O)NCc1ccc(OC)c(OC)c1 (configuration not stated)		> 100 µM
COc1ccc(-c2ccc3c(N4CCOC[C@@H]4C)nc(N4CCOC[C@@H]4C)nc3n2)cc1CO	0.00731 µM and 0.0394 µM	> 100 µM
N[C@H](CCC(=O)N[C@@H](Cc1c[nH]c2ccccc12)C(=O)O)C(=O)O	> 100 µM	> 100 µM
COc1ccc(-c2nc(-c3cc(OC)cc(OC)c3)[nH]c2-c2ccc(OC)cc2)cc1	4.72 µM	> 100 µM
Nc1ccccc1O.O.O=C(O)C1[O][Sb][O]C1C(=O)O (configuration not stated)	17.6 µM	44.2 µM
O=C(CC(=O)C1CCOC1=O)C(=O)Nc1cccc(Cl)c1 (configuration not stated)		> 100 µM
OC(c1cc(-c2ccc(C(F)(F)F)cc2)nc(C(F)(F)F)c1)C1CCCCN1 (configuration not stated)	1.68 µM and 2.39 µM	3.15 µM and 6.12 µM
CC(C)CC(C/C=C1/CC(CO)(COC(=O)C(C)(C)C)OC1=O)CC(C)C (configuration not stated)		23.4 µM and 24.4 µM
Cc1cccc(C2=C/C(=C(\SS/C(C(=O)c3ccc(OCC(=O)O)c(Cl)c3Cl)=C3\C=C(c4cccc(C)c4)SS3)C(=O)c3ccc(OCC(=O)O)c(Cl)c3Cl)SS2)c1		38.7 µM
